# US7956085B2, “1,4-benzothiepine 1,1-dioxide derivatives substituted by benzyl radicals, method for their preparation, pharmaceuticals comprising these compounds, and the use thereof” (Sanofi-Aventis Deutschland GmbH, priority 2006, dated 2011)
# Biological target: T1, human IBAT (Homo sapiens, UniProt Q12908)
# T1 construct: Bases 599 to 1645 correspond to the complete coding region of human IBAT; expressed in transfected cells
# T1 sequence (Q12908 1-348): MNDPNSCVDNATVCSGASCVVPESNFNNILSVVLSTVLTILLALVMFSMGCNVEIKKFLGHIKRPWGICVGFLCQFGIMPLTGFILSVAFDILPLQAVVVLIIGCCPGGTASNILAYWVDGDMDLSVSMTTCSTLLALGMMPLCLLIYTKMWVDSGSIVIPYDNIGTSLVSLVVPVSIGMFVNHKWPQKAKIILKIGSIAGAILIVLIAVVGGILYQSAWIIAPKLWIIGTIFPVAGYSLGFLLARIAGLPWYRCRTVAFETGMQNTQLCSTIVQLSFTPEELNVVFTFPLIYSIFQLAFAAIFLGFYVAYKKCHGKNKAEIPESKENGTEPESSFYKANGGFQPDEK
# Test: In vitro IBAT inhibition assay: IBAT-dependent uptake of [3H]-taurocholic acid into CHO-hIBAT cells
# Type: cell-based
# Details: 10 μM taurocholic acid, 60 min at room temperature, read-out: IC-50 (human IBAT)
# Source text: Preparation and Procedure for the In Vitro IBAT Inhibition Assay:
# 1. Cloning of an Expression Vector for Human IBAT
# The cDNA (complementary deoxyribonucleic acid) of human IBAT was cloned by standard methods of molecular biology as described for example in Molecular Cloning: A Laboratory Manual by Joseph Sambrook and David Russell, and introduced into the pcDNA1 vector from Invitrogen. […] Bases 599 to 1645 correspond to the complete coding region of human IBAT.
# 2. Preparation of a Recombinant Cell Line with Constitutive Expression of Human IBAT
# The expression vector for human IBAT was introduced by stable transfection into CHO (chinese hamster ovary) cells. To select single cell clones, 400 μg/ml Geneticin was added to the cell culture medium (Ham's F12 medium supplemented with 10% fetal calf serum, 100 units/ml penicillin, 100 units/ml streptomycin). The functionality of the single cell clones resulting from the selection was assayed via their uptake activity for radiolabeled taurocholic acid ([^3H]-TCA). The cell clone with the highest uptake activity for [^3H]-TCA, referred to hereinafter as CHO-hIBAT, was selected for the further assays and further cultured in the presence of 400 μg/ml Geneticin.
# 3. Measurement of The Inhibitory Effect of The Compound of The Invention on The IBAT-Dependent Uptake of Taurocholic Acid into Cells
# CHO-hIBAT cells were seeded in a concentration of 40 000 cells per well in poly-D-lysine-coated 96-well plates in cell culture medium and cultured for 24 h. The cells were then washed once with sodium-free transport assay buffer (140 mM choline chloride, 2 mM potassium chloride, 1 mM magnesium chloride, 1 mM calcium chloride, 10 mM HEPES/Tris, pH 7.5) and subsequently incubated either with sodium-free transport assay buffer as negative control or with sodium-containing transport assay buffer (140 mM sodium chloride, 2 mM potassium chloride, 1 mM magnesium chloride, 1 mM calcium chloride, 10 mM HEPES/Tris, pH 7.5) as positive control at room temperature for 30 min. At the same time, the assay wells were also incubated in the presence of the compound to be investigated in varying concentration in sodium-containing transport assay buffer at room temperature for 30 min. The test substances were appropriately diluted in transport assay buffer (40 μl/well) starting from a 10 mM stock solution in dimethyl sulfoxide. The assay was then started by adding 10 μl/well of a mixture of radiolabeled taurocholic acid ([^3H]-TCA) and unlabeled taurocholic acid. The final concentration of taurocholic acid in the assay was 10 μM. After an incubation time of 60 min at room temperature, the reaction was stopped by adding 100 μl/well of sodium-free transport assay buffer (4° C.), and each well was washed three times with sodium-free transport assay buffer. Finally, 100 μl of scintillation fluid were added to each well, and the radioactivity taken up into the cells was determined in a MicroBeta Scintillation Microplate Reader from Wallac.
# The half-maximum inhibitory effect of the test compound (IC50 value, inhibitory concentration 50) was determined in the following way: • 1. Determination of the value for 0% inhibition. This is the measurement in the absence of substance, measured in sodium-containing transport assay buffer. • 2. Determination of the value for 100% inhibition. This is the measurement in the absence of substance, measured in sodium-free transport assay buffer. • 3. Calculation of the percentage inhibitions of those measurements carried out in the presence of various concentrations of the compound to be investigated. It was then possible to find therefrom the concentration of the compound which reduces the uptake of taurocholic acid by 50% (IC50 value).
row,SMILES,IC50
1,CCCC[C@]1(CC)CS(=O)(=O)c2ccc(N(C)C)cc2[C@@H](c2cccc(NC(=O)N[C@@H]3O[C@H](CO)[C@@H](O)[C@H](OCc4ccccc4)[C@H]3O)c2)[C@H]1O [Example 1],4.4 nM
2,CCCC[C@]1(CC)CS(=O)(=O)c2ccc(N(C)C)cc2[C@@H](c2cccc(NC(=O)N[C@@H]3O[C@H](COS(=O)(=O)O)[C@@H](O)[C@H](OCc4ccccc4)[C@H]3O)c2)[C@H]1O [Example 4],2.4 nM
3,CCCC[C@]1(CC)CS(=O)(=O)c2ccc(N(C)C)cc2[C@@H](c2cccc(NC(=O)N[C@@H]3O[C@H](COS(=O)(=O)O)[C@@H](OS(=O)(=O)O)[C@H](OCc4ccccc4)[C@H]3O)c2)[C@H]1O [Example 5],2 nM

# Next, values leading:
row,IC50,SMILES
1,6.9 nM,CCCCC1(CCCC)CS(=O)(=O)c2ccc(N(C)C)cc2[C@@H](c2cccc(NC(=O)N[C@@H]3O[C@H](CO)[C@@H](O)[C@H](OCc4ccccc4)[C@H]3O)c2)[C@H]1O [Example 2]
2,3.5 nM,CCCC[C@]1(CC)CS(=O)(=O)c2ccc(N(C)C)cc2[C@@H](c2cccc(NC(=O)N[C@@H]3O[C@H](COCc4ccccc4)[C@@H](O)[C@H](OCc4ccccc4)[C@H]3O)c2)[C@H]1O [Example 3]
3,10.7 nM,CCCCC1(CCCC)CS(=O)(=O)c2ccc(N(C)C)cc2[C@@H](c2cccc(NC(=O)N[C@@H]3O[C@H](COS(=O)(=O)O)[C@@H](O)[C@H](OCc4ccccc4)[C@H]3O)c2)[C@H]1O [Example 6]
